Results taken from ChEMBL document CHEMBL2169839 (J Med Chem, 2012).
Where a chain is given by its changes, count along the chain named.

Assays:
[1] = molecular target: T1, Aldo-keto reductase family 1 member C4 (Homo sapiens, UniProt P17516); assay: Inhibition of human recombinant AKR1C4 expressed in Escherichia coli BL21(DE3) using phenanthrenequinone as substrate by spectrophotometric analysis
T1 sequence (P17516 whole entry): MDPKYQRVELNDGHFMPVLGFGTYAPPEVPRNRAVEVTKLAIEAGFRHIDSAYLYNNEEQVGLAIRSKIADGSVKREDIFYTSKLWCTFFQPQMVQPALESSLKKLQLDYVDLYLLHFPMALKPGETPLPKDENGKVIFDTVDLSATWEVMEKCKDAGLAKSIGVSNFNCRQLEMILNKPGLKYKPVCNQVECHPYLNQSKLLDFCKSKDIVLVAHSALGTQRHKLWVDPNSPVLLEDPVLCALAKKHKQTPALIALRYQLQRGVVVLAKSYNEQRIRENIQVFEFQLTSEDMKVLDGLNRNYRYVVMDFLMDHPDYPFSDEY

[2] = molecular target: T2, Aldo-keto reductase family 1 member C3 (Homo sapiens, UniProt P42330)
T2 sequence (P42330 whole entry): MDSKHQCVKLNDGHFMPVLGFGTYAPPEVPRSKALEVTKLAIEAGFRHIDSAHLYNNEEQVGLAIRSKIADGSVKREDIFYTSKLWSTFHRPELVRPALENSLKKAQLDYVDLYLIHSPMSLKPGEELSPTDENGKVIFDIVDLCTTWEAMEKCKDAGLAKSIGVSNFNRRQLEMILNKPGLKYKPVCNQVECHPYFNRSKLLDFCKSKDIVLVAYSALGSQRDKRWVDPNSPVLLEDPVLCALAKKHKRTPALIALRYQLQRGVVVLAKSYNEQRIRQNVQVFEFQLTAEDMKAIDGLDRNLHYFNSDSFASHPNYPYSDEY

[3] = molecular target: T3, Aldo-keto reductase family 1 member C1 (Homo sapiens, UniProt Q04828); assay: Inhibition of human recombinant AKR1C1 expressed in Escherichia coli BL21(DE3) using phenanthrenequinone as substrate by spectrophotometric analysis
T3 sequence (Q04828 whole entry): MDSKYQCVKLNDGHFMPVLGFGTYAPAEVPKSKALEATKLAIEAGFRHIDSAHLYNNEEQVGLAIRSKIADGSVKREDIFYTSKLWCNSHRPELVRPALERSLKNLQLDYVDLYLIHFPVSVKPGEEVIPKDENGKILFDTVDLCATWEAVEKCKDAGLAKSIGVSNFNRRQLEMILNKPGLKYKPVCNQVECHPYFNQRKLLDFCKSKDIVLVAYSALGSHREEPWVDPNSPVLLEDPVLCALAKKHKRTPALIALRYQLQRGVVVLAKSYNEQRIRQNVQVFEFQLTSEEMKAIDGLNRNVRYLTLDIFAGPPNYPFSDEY

[4] = molecular target: T2, Aldo-keto reductase family 1 member C3; assay: biochemical
Description: Inhibition of human recombinant N-terminal His6-tagged AKR1C3 expressed in Escherichia coli BL21(DE3) cells using 8-Acetyl-2,3,5,6-tetrahydro-1H,4H-11-oxa-3a-aza-benzo[de]anthracen-10-one as substrate after 1 hr by fluorimetric analysis

[5] = molecular target: T4, Aldo-keto reductase family 1 member C2 (Homo sapiens, UniProt P52895)
T4 sequence (P52895 whole entry): T3 sequence (Q04828 whole entry) with T38V, R47H, L54V, C87S, V151M, R170H, Q172L

[6] = molecular target: T2, Aldo-keto reductase family 1 member C3; assay: Inhibition of AKR1C3 overexpressed in human HCT116 cells assessed as inhibition of PR-104A conversion to hydroxylamine after 2 hrs by LC-MS/MS analysis
[7] = molecular target: T3, Aldo-keto reductase family 1 member C1
[8] = molecular target: T1, Aldo-keto reductase family 1 member C4

Structure (SMILES)	Ki [1] [µM]	Ki [2] [µM]	Ki [3] [µM]	IC50 [4] [µM]	IC50 [5] [µM]	IC50 [6] [µM]	IC50 [7] [µM]	IC50 [8] [µM]
CC/C=C\C[C@H]1C(=O)CC[C@@H]1CC(=O)O [JASMONIC ACID]	37	162	106					
O=C(O)c1cccc(S(=O)(=O)N2CCc3ccc(Cl)cc3C2)c1				0.02	> 30	> 1	> 30	> 30
O=C(O)c1cccc(S(=O)(=O)NCCc2ccccc2)c1				0.22	> 30	> 1	> 30	> 30
O=C(O)c1cccc(S(=O)(=O)N2CCc3ccc(Br)cc3C2)c1				0.012	> 30	0.02	> 30	> 30
O=S(=O)(c1cccc(-c2nnn[nH]2)c1)N1CCc2ccccc2C1				0.0095	> 30	0.897	> 30	> 30
Nc1cccc2c1CCN(S(=O)(=O)c1cccc(C(=O)O)c1)C2				0.053	> 30	0.193	> 30	> 30
O=C1CCCN1c1ccc(S(=O)(=O)N2CCc3ccccc3C2)cc1				0.042	> 30	0.024	> 30	> 30
O=C(O)c1cccc(S(=O)(=O)N2CCc3c(I)cccc3C2)c1				0.014	> 30	0.02	> 30	> 30
Cc1ccc2c(c1)CCN(S(=O)(=O)c1cccc(C(=O)O)c1)C2				0.017	> 30	0.052	> 30	> 30
O=C(O)c1cccc(S(=O)(=O)N2CCc3ccccc32)c1				0.21	> 30	> 1	6.61	> 30
O=C(O)C(=O)Nc1cccc(S(=O)(=O)N2CCc3ccccc3C2)c1				0.062	> 30	> 1	> 30	> 30
O=C(O)c1cccc(S(=O)(=O)N2CCc3sccc3C2)c1				0.025	> 30	0.034	> 30	> 30
O=C(NCCc1ccncc1)c1cccc(S(=O)(=O)N2CCc3ccccc3C2)c1				0.058	> 30	0.035	> 30	> 30
O=C(O)[C@H]1CCCN(S(=O)(=O)c2ccc3ccccc3c2)C1				0.4	> 3	> 1	> 30	> 3
Cc1ccc2c(c1)CN(S(=O)(=O)c1cccc(C(=O)O)c1)CC2				0.013	> 30	0.029	> 30	> 30
O=C(O)c1cccc(S(=O)(=O)N2CCc3ccc(I)cc3C2)c1				0.014	> 30	0.045	> 30	> 30
O=C(O)c1cccc(S(=O)(=O)N2CCc3cc(Br)ccc3C2)c1				0.0061	> 30	0.012	> 30	> 30

Structure (SMILES)	Ki [1] [µM]	Ki [2] [µM]	Ki [3] [µM]	IC50 [4] [µM]	IC50 [5] [µM]	IC50 [6] [µM]	IC50 [7] [µM]	IC50 [8] [µM]
CC1c2ccccc2CCN1S(=O)(=O)c1cccc(C(=O)O)c1 (stereo not drawn)				0.027	> 30	0.024	> 30	> 30
O=C(O)c1cccc(S(=O)(=O)N2CCc3c(O)cccc3C2)c1				0.016	> 30	0.453	25.6	> 30
O=C(O)c1ccc(S(=O)(=O)N2CCc3ccccc3C2)cc1				1.24	> 30	> 1	> 30	> 30
O=C(O)c1cccc(S(=O)(=O)N2CCc3cccc(Cl)c3C2)c1				0.019	12.1	0.028	0.74	> 30
O=C(O)c1cccc(S(=O)(=O)N2CCc3ccc(F)cc3C2)c1				0.021	> 30	0.024	> 30	> 30
COc1ccc2c(c1)CCN(S(=O)(=O)c1cccc(C(=O)O)c1)C2				0.038	> 30	0.39	> 30	> 30
O=C(O)c1cccc(S(=O)(=O)N2Cc3ccccc3C2)c1				0.047	> 30	0.884	3.89	> 30
COc1cccc2c1CCN(S(=O)(=O)c1cccc(C(=O)O)c1)C2				0.016	> 30	0.039	> 30	> 30
O=C(O)c1cccc(S(=O)(=O)NCCc2cccc(Cl)c2)c1				0.21	> 30	> 1	> 30	> 30
COc1cc2c(cc1OC)CN(S(=O)(=O)c1cccc(C(=O)O)c1)CC2				0.16	> 30	> 1	> 30	> 30
O=C(O)c1cccc(S(=O)(=O)N2CCc3cc(Cl)ccc3C2)c1				0.0087	> 30	0.039	7.48	> 30
CNC(=O)c1cccc(S(=O)(=O)N2CCc3ccccc3C2)c1				0.05	> 30	0.013	> 30	> 30
O=C(O)c1cccc(S(=O)(=O)NCCc2ccc(Cl)cc2)c1				0.14	> 30	> 1	> 30	> 30
O=C(O)c1cccc(S(=O)(=O)N2CCc3cc([N+](=O)[O-])ccc3C2)c1				0.022	> 30	> 1	> 30	> 30
O=C(c1cccc(S(=O)(=O)N2CCc3ccccc3C2)c1)N1CCOCC1				0.078	> 30	0.013	> 30	> 30
O=C(O)[C@@H]1CCCN(S(=O)(=O)c2ccc3ccccc3c2)C1				0.032	> 30	> 1	> 30	> 30
CN(C)C(=O)c1cccc(S(=O)(=O)N2CCc3ccccc3C2)c1				0.053	> 30	0.014	> 30	> 30
